According to patent publication US20230029259A1, “COMBINATION OF IAP INHIBITORS AND PARP OR MEK INHIBITORS OR OTHER CHEMOTHERAPEUTIC AGENTS” (Ascentage Pharma (Suzhou) Co., Ltd., priority 2019, published 2023):
Values joined by “and” are separate entries in the source; they are usually repeats but may differ in a detail not shown here. Equal values may be shown once.

Key:
[1] = tested on: pancreatic cancer patient derived xenograft (PDX) model PA1170; assay: Antitumor activity in subcutaneous pancreatic cancer PDX model PA1170 (Biological Example 1); type: in vivo, BALB/c nude mice; settings: day 28, Example 24 10 mg/kg i.v. QW, olaparib 50 mg/kg p.o. BID, trametinib 0.3 mg/kg p.o. QD, 4 ws
From the text: (§1) Balb/c nude, female, 4-6 weeks, weighing approximately 18-22 g, which were purchased from GemPharmatech Co., Ltd (Nanjing, Jiangsu).
(§2) All of the PDX models were originally established from a surgically resected clinical sample (cancer type: pancreatic adenocarcinoma), and implanted in nude mice defined as passage 0 (P0). The next passage implanted from P0 tumor was defined as passage1 (P1), and so on during continual implantation in mice. The frozen tumor fragments were revived in NOD SCID mice, when the tumors were developed to suitable size, they were passaged to Balb/c nude mice. The P4-P7 tumors were used for the study.
(§3) Each group consisted of 5 tumor-bearing mice.
(§4) The protocol and any amendment(s) or procedures involving the care and use of animals in this study were reviewed and approved by the Institutional Animal Care and Use Committee (IACUC) of CrownBio prior to execution. During the study, the care and use of animals were conducted in accordance with the regulations of the Association for Assessment and Accreditation of Laboratory Animal Care (AAALAC). After tumor inoculation, the animals were checked daily for morbidity and mortality. During routine monitoring, the animals were checked for any effects of tumor growth and treatments on behavior such as mobility, food and water consumption, body weight gain/loss, eye/hair matting and any other abnormalities. Mortality and observed clinical signs were recorded for individual animals in detail.
(§5) After randomization, tumor volumes were measured twice per week in two dimensions using a caliper, and the volume was expressed in mm^3 using the formula: […]
(§6) where V is tumor volume, L is tumor length (the longest tumor dimension) and W is tumor width (perpendicular to L). Body weight was measured twice per week. Dosing as well as tumor and body weight measurements were conducted in a Laminar Flow Cabinet. The body weights and tumor volumes were measured by using StudyDirector™ software (version 3.1.399.19).
(§7) Relative tumor volume (RTV) was calculated using the following formula: […]
(§8) where V1 and Vt are the average tumor volumes on the first day of treatment (day 1) and the average tumor volumes on a certain time point (day t).
(§9) Synergy score was calculated using the following formula described in Clarke R. Issues in experimental design and endpoint analysis in the study of experimental cytotoxic agents in vivo in breast cancer and other models[J]. Breast Cancer Research & Treatment, 1997, 46(2-3):255-278, which is incorporated by reference in its entirety:
(§10) Synergy score=((A/C)×(B/C))/(AB/C),
(§11) where A is RTV value of drug A; B is RTV value of drug B; C is RTV value of vehicle control. AB is RTV value of combination treatment with A and B. Synergy scores: >1 represents synergistic, =1 represents additive, <1 represents antagonistic (referring to Gould S E et al. Translational value of mouse models in oncology drug development. Nature medicine. 2015 21, 431-439).
(§12) Standard NCI procedures were used to calculate tumor parameters. Percent tumor growth inhibition (% T/C) was calculated as the mean RTV of treated tumors (T) divided by the mean RTV of control tumors (C)×100%. The percentage T/C value is an indication of antitumor effectiveness: a value of T/C<42% is considered significant antitumor activity by the NCI. A T/C value <10% is considered to indicate highly significant antitumor activity, and is the level used by the NCI to justify a clinical trial if toxicity and certain other requirements are met (termed DN-2 level activity). A body weight loss nadir (mean of group) of greater than 20%, or greater than 20% of drug deaths are considered to indicate an excessively toxic dosage.
(§13) The antitumor activity curves of test articles were plotted with the observation time on the X-axis, and corresponding tumor volume (geometric mean) on the Y-axis. A two-tailed t-test was employed to analyze the statistical significance of any difference between the treatment group and the control group. […]

[2] = tested on: pancreatic cancer patient derived xenograft model PA6265; assay: Antitumor activity in subcutaneous pancreatic cancer PDX model PA6265 (Biological Example 1); type: in vivo, BALB/c nude mice; settings: olaparib 50 mg/kg p.o. BID, trametinib 0.3 mg/kg p.o. QD, 4 weeks; for T/C (%) @ D29: day 29 (text: day 28), Example 24 10 mg/kg i.v. QW; for RTV @ D29: day 29, Example 24 10 mg/kg i.v. QW
From the text: as §1, §2, §3, §4, §5, §6, §7, §8, §9, §10, §11, §12, §13

[3] = tested on: PA1170 pancreatic cancer patient-derived xenograft model; assay: Antitumor activity in PA1170 pancreatic cancer PDX model, confirmation study (Biological Example 3); type: in vivo, mice; settings: for RTV @ D29 / T/C (%) @ D29: day 29, Example 24 10 mg/kg IV, olaparib 50 mg/kg p.o. BID, trametinib 0.3 mg/kg p.o. QD, 4 weeks
[4] = tested on: Panc-1 human pancreatic cancer xenograft model; settings: Panc-1 xenograft, day 27; abraxane 30 mg/kg i.v. QW×3w, gemcitabine 120 mg/kg i.p. QW×3w
[5] = tested on: murine pancreatic cancer model mPA6115; assay: Antitumor activity in murine pancreatic cancer model mPA6115 (Biological Example 2)
From the text: C57BL/6, female, 6-8 weeks, weighing approximately 18-20 g, which were purchased from Shanghai Lingchang Biotechnology Co., Ltd (Shanghai, China).
mPA6115 is a murine pancreatic cancer cell line carries a conditional mutant KRAS (KrasLSL-G12D/WT), a constitutive deletion of TP53 (p53−/−) and a Cre driven by the promoter of Pdx1 gene.
Fresh tumor tissues from mice bearing established primary cancer tissues were harvested and cut into small pieces (approximately 2-3 mm in diameter). Tumor fragments, harvested from donor mice, were inoculated subcutaneously at the upper right dorsal flank into corresponding female C57BL/6 mice for tumor development. Treatments were started when the average tumor size reached approximately 150 mm^3. Randomization were performed based on “Matched distribution” method/“Stratified” method using the multi-task method (StudyDirector™ software, version 3.1.399.19)/randomized block design. Each group consisted of 6 tumor-bearing mice.

[6] = mPA6115, day 21, Example 24 0.2 mg/kg i.v. BIW×3w, abraxane 15 mg/kg i.v. QW×3w, gemcitabine 120 mg/kg i.p. QW×3w

Row | Compound | RTV @ D28 [1] | T/C (%) @ D28 [1] | T/C (%) @ D28 ([1]; listed as trametinib) | T/C (%) @ D29 [2] | T/C (%) @ D29 ([2]; listed as trametinib) | RTV @ D29 [2] | RTV @ D29 [3] | T/C (%) @ D29 [3] | T/C (%) @ D29 ([3]; listed as trametinib) | T/C (%) @ D28 ([1]; listed as olaparib) | T/C (%) @ D29 ([2]; listed as olaparib) | T/C (%) @ D29 ([3]; listed as olaparib) | RTV @ D27 [4] | T/C (%) @ D27 [4] | antitumor effect (in words) ([5]; mPA6115, day 21, single agent 0.2 mg/kg i.v. BIW×3w) | RTV @ D21 [5, 6] | T/C (%) @ D21 [5, 6] | Response @ D21 ([5]; mPA6115, day 21, animals with PD or died / animals) | Response @ D28 ([3]; responders/animals (CR, SD))
1 | CC(=O)Nc1cccc(-n2c(=O)n(C3CC3)c(=O)c3c(Nc4ccc(I)cc4F)n(C)c(=O)c(C)c32)c1 [Trametinib] | 6.59 ± 0.41 | 68.57% | 69% | 76.01% | 76% | 4.31 ± 0.98 | 7.34 ± 1.49 | 86.25% | 86.3% |  |  |  |  |  |  |  |  |  | 
2 | O=C(c1cc(Cc2n[nH]c(=O)c3ccccc23)ccc1F)N1CCN(C(=O)C2CC2)CC1 [Olaparib] | 3.09 ± 0.73 | 32.15% |  | 71.78% |  | 4.07 ± 0.51 | 1.90 ± 1.13 | 22.33% |  | 32% | 72% | 22.3% |  |  |  |  |  |  | 
3 | CN[C@@H](C)C(=O)N[C@H]1CN(S(=O)(=O)c2cccc(S(=O)(=O)N3CC[C@H]4CC[C@@H](C(=O)NC(c5ccccc5)c5ccccc5)N4C(=O)[C@@H](NC(=O)[C@H](C)NC)C3)c2)CC[C@H]2CCC(C(=O)NC(c3ccccc3)c3ccccc3)N2C1=O (stereo partly drawn) [the compound of Example 24] |  |  |  |  |  |  | 4.29 ± 1.83 | 50.4% and 50.41% |  |  |  |  | 2.63 ± 0.51 | 66.1% and 66.08% | no antitumor effect | 32.77 ± 10.36 | 144.28% | 5/6 PD, 1/6 died | 1/5 SD
